The results in this text go back to patent publication US7300940B2, “Integrin α-v β-3 antagonists for use in imaging and therapy” (The United States of America, as represented by the …, priority 2004, dated 2007).

Usually IC50 stands for the concentration needed to halve the response being measured.

The assay addresses T1, Integrin protein αvβ3 (Homo sapiens, UniProt P05106+P06756).
T1 construct: purchased Chemicon International, Inc., Temecula, Calif., USA
Kind of assay: Receptor/ligand challenge assay of biotinylated vitronectin binding to plate-coated integrin αvβ3 (chemiluminescence). The note with it: for IC50: competition with biotinylated vitronectin for coated αvβ3, 3 hours at room temperature, quadruplicate, 0.00316-1000 nM; for IC50 Ratio Relative to Hood et al.: ratio of IC50 versus the Hood et al. antagonist in the same assay. The method, then:
Receptor/Ligand Challenge Assay of Vitronectin to Integrin αvβ3 Receptor Antagonists in the Presence of Test Compounds
The title compounds of Examples 1 through 8 were tested for their activity as αvβ3 receptor antagonists by the procedure described below, and the buffers, solutions, and reagents used in the procedure are listed following the procedure.
Procedure. Integrin protein αvβ3 (purchased from Chemicon International, Inc., Temecula, Calif., USA) was diluted to a final concentration of 1 μg/mL in coating buffer (2.1). The αvβ3 coating solution was applied to 96-well polystyrene microtiter plate at 100 μL/well. (A total of 10 mL is needed to coat one 96-well plate). The plates were then sealed and allowed to incubate at 4° C. for at least 8 hours. The coating solution was then removed and the plate was washed two times with 300 μL/well of washing solution (2.2). Blocking buffer (2.3) was then added in amounts of 150 μL/well and the plate was incubated at room temperature for 2 hours. The blocking buffer was then removed, and the integrin antagonistic substances (117 μL of 1.25 μM (in H2O)) were added in quadruplicate to column 1 of the twelve well columns of the plate. For example, 117 μL of 1.25 μM 4-[2-(3,4,5,6-tetrahydropyrimidin-2 ylamino)ethyloxy]benzoyl-2-(S)-aminoethylsulfonylamino-β-alanine, the antagonist described by Hood et al. referenced above was added to column 1, rows A-D and 117 μL of 1.25 μM of the antagonist of Example 1 was added to column 1, […]. Binding buffer (2.4) (80 μL) was added to the remaining wells of the plate (column 2-12, rows A-F). A multichannel pipet was used to transfer 37 μL aliquots of the solutions from column 1 to column 2. The solutions were then mixed in the column 2 wells by drawing them up and down in the pipet 15 times. Solutions (37 μL) were then transferred from column 2 to column 3 and mixed by being drawn up and down in the pipet 15 times. The process was repeated across the columns to column 12, and the last 37 μL of solution was discarded. Biotinylated Vitronectin solution (2.5) was then added (20 μL/well, 0.1 μg/well). The final volume was 100 μL total per well, and the concentrations (nM) of analytes in columns 1-12 respectively were as follows: 1000, 316, 100, 31.6, 10.0, 3.16, 1.00, 0.316, 0.100, 0.0316, 0.01, and 0.00316.
The plate was agitated for thorough mixing of the solutions, then covered and incubated at room temperature for 3 hours. The solutions were then discarded and the plate was washed 3 times with 170 μL/well of washing solution (2.2). NeutrAvidin-HRP solution (2.6) was then added (100 μL/well, 0.01 μg/well), cover, and the plate was incubated at room temperature for 30 minutes. The solutions in the wells were then discarded and the plate was washed 3 times with 170 μL/well of washing solution (2.2). Chemiluminescent Substrate solution (2.7) was then added to the plate (100 μL/well), and the luminescence was read using the Wallac Victor 1420 Multilabel Counter (PerkinElmer, Inc., Boston, Mass., USA). A plot of average luminescence vs. concentration was generated using KaleidaGraph (version 3.5) software and the IC50 values were calculated using the following formula: Max−Max*M0^m1/(m2^m1+M0^m1);m1=1;m2=1, where Max is the maximum luminescence observed.
The results are expressed in the table below, both in terms of the 50% inhibitory concentration (IC50) of each test compound and the ratio of 50% inhibitory concentration (IC50) of the test compound to that of the Hood et al. antagonist 4-[2-(3,4,5,6-tetrahydropyrimidin-2-ylamino)ethyloxy]benzoyl-2-(S)-aminoethylsulfonylamino-β-alanine.

Structures can show the parent of a compound that is named as a salt.

T1 sequence (P06756 31-889 limits assumed): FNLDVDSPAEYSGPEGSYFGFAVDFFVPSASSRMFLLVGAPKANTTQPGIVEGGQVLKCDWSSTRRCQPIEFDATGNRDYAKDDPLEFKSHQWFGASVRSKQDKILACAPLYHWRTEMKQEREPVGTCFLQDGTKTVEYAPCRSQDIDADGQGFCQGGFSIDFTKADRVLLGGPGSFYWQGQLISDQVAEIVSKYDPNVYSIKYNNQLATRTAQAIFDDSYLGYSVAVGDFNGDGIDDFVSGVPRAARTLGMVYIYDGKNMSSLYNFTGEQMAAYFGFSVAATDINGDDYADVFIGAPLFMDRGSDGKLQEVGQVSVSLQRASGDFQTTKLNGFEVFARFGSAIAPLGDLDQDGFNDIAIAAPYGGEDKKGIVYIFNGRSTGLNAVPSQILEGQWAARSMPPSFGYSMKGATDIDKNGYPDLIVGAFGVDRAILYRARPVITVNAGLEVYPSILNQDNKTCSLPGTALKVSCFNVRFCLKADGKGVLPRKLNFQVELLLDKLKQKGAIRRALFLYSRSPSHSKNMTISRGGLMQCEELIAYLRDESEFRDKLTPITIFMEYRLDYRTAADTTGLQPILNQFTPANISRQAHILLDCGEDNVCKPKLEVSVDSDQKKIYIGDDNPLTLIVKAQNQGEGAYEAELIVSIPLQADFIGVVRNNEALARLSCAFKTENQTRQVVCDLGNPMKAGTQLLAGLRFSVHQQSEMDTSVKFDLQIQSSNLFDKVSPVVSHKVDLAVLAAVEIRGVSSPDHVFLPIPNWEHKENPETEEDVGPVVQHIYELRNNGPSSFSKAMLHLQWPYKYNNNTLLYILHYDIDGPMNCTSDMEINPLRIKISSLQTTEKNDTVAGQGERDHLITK
T1 sequence (P06756 891-1048 limits assumed): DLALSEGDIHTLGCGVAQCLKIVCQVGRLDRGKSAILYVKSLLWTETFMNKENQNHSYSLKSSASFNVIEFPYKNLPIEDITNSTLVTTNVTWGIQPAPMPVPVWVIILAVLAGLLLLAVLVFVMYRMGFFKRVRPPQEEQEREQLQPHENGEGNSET
T1 sequence (P05106 27-788): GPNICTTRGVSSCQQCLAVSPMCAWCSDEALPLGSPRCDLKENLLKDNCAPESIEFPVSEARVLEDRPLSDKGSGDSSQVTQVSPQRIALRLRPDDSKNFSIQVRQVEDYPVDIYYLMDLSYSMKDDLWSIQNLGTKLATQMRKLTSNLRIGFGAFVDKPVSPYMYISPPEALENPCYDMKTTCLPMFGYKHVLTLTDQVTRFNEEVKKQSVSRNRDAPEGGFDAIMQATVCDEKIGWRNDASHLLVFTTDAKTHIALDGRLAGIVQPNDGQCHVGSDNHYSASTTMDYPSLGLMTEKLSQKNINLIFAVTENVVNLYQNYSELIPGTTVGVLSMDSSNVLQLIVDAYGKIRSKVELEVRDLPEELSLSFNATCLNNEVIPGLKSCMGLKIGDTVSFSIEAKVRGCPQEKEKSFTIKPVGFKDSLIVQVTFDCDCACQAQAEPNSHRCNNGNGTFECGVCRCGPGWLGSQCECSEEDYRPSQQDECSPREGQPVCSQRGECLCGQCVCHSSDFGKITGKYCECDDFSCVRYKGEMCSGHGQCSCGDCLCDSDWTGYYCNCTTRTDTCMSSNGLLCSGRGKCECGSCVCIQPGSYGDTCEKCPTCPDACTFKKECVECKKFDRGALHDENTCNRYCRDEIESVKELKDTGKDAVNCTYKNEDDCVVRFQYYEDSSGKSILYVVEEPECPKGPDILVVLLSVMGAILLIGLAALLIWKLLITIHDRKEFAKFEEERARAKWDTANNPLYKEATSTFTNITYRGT

For the compound `NCCCCOC(=O)NCCS(=O)(=O)N[C@@H](CNC(=O)c1ccc(OCCNC2=NCCCN2)cc1)C(=O)O` [Example 8, 4-[2-(3,4,5,6-Tetrahydropyrimidin-2-ylamino)ethyloxy]benzoyl-2-(S)-[N-(3-amino-butyl-1-carbamyl)]-aminoethylsulfonylamino-β-alanine], the IC50 came to 3.13 ± 0.33 nM and the “IC50 Ratio Relative to Hood et al.” value is reported as 1.3 ± 0.5.

Compound `NCCS(=O)(=O)N[C@@H](CNC(=O)c1ccc(OCCNC2=NCCCN2)cc1)C(=O)O` [Hood et al., 4-[2-(3,4,5,6-tetrahydropyrimidin-2-ylamino)ethyloxy]benzoyl-2-(S)-aminoethylsulfonylamino-β-alanine, reference compound] showed an IC50 of 14.1 ± 1.4 nM.

Turning to `CCCCOC(=O)NCCCCOC(=O)NCCS(=O)(=O)N[C@@H](CNC(=O)c1ccc(OCCNC2=NCCCN2)cc1)C(=O)O` [Example 7, 4-[2-(3,4,5,6-Tetrahydropyrimidin-2-ylamino)ethyloxy]benzoyl-2-(S)-[N-(3-butyloxycarbonylamino-butyl-1-carbamyl)]-aminoethylsulfonylamino-β-alanine], the IC50 stood at 1.34 ± 0.14 nM and the “IC50 Ratio Relative to Hood et al.” value is listed as 10.8 ± 2.7.

As to `NCCOC(=O)NCCS(=O)(=O)N[C@@H](CNC(=O)c1ccc(OCCNC2=NCCCN2)cc1)C(=O)O` [Example 4, 4-[2-(3,4,5,6-Tetrahydropyrimidin-2-ylamino)ethyloxy]benzoyl-2-(S)-[N-(3-amino-ethyl-1-carbamyl)]-aminoethylsulfonylamino-β-alanine], the IC50 was 3.64 ± 0.3 nM and the “IC50 Ratio Relative to Hood et al.” value came to 4.3 ± 0.6.

`NCCCOC(=O)NCCS(=O)(=O)N[C@@H](CNC(=O)c1ccc(OCCNC2=NCCCN2)cc1)C(=O)O` [Example 6]: the 50% inhibitory concentration (IC50) came to 6.68 ± 0.54 nM and the “IC50 Ratio Relative to Hood et al.” value amounted to 3.6 ± 0.7.

For the compound `CC(C)(CN)COC(=O)NCCS(=O)(=O)N[C@@H](CNC(=O)c1ccc(OCCNC2=NCCCN2)cc1)C(=O)O` [Example 2, 4-[2-(3,4,5,6-Tetrahydropyrimidin-2-ylamino)ethyloxy]benzoyl-2-(S)-[N-(3-amino-neopenta-1-carbamyl)]-aminoethylsulfonylamino-β-alanine Hydrochloride], the IC50 amounted to 2.94 ± 0.19 nM and the “IC50 Ratio Relative to Hood et al.” value is on record as 7.0 ± 0.7.

Consider `CCCCOC(=O)NCC(C)(C)COC(=O)NCCS(=O)(=O)N[C@@H](CNC(=O)c1ccc(OCCNC2=NCCCN2)cc1)C(=O)O` [Example 1, 4-[2-(3,4,5,6-Tetrahydropyrimidin-2-ylamino)ethyloxy]benzoyl-2-(S)-[N-(3-butyloxycarbonylamino-neopenta-1-carbamyl)]-aminoethylsulfonylamino-β-alanine], for which the IC50 was 0.72 ± 0.08 nM and the “IC50 Ratio Relative to Hood et al.” value is given as 17.3 ± 4.7.

With `CCCCOC(=O)NCCOC(=O)NCCS(=O)(=O)N[C@@H](CNC(=O)c1ccc(OCCNC2=NCCCN2)cc1)C(=O)O` [Example 3, 4-[2-(3,4,5,6-Tetrahydropyrimidin-2-ylamino)ethyloxy]benzoyl-2-(S)-[N-(3-butyloxycarbonylamino-ethyl-1-carbamyl)]-aminoethylsulfonylamino-β-alanine], the half-maximal inhibitory concentration (IC50) came to 1.7 ± 0.2 nM and the “IC50 Ratio Relative to Hood et al.” value is on record as 8.8 ± 3.5.

Consider `CCCCOC(=O)NCCCOC(=O)NCCS(=O)(=O)N[C@@H](CNC(=O)c1ccc(OCCNC2=NCCCN2)cc1)C(=O)O` [Example 5, 4-[2-(3,4,5,6-Tetrahydropyrimidin-2-ylamino)ethyloxy]benzoyl-2-(S)-[N-(3-butyloxycarbonylamino-propyl-1-carbamyl)]-aminoethylsulfonylamino-β-alanine], for which the IC50 was 1.02 ± 0.12 nM and the “IC50 Ratio Relative to Hood et al.” value is given as 11.2 ± 2.4.
